pIC50: −log10 of the molar value. “And” between values parts separate entries of the source, which are not always exact repeats. Identical values can stand only once.
Tested on: 855422-203-R-J1-PDC complex spheroids, viability
Assay: Anticancer human tumor 855422-203-R-J1-PDC patient-derived bladder carcinoma cell line growth inhibition [CLK]
Settings: for viability, T/C: stronger effect = lower value
Source text: A high-throughput screen of multi-cell type tumor spheroids was designed to identify active combinations of […] and targeted small molecules. Complex spheroids include a stromal component modeled by human endothelial cells (HUVEC) and fibroblasts modeled by human mesenchymal stem cells (MSCs). The concentration ranges selected for each drug and investigational agent were based upon clinically achievable concentrations if the clinical Cmax of the agent was known.
Compounds. The drugs and investigational agents: cirtuvivint (SM08502; NSC835563), CC-671 (NSC850746), vemurafenib (NSC761431), tapotoclax (NSC804041), sotorasib (NSC818433), adagrasib (NSC831453), MRTX-1133 (NSC836407), BAY2416964 (NSC825713), copanlisib (NSC816437), inavolisib (NSC800729), abemaciclib (NSC768073), osimertinib (NSC779217), entinostat (NSC756642), eltanexor (KPT-8602, NSC794443), venetoclax (NSC766270), ceralasertib (NSC777638), bortezomib (NSC756655), olaparib (NSC753686), talazoparib (NSC767125), alisertib (NSC759677), peposertib (NSC802822), gemcitabine (NSC613327), 5-fluorouracil (NSC19893), SN-38 (NSC673596), oxaliplatin (NSC266046), paclitaxel (NSC125973), and doxorubicin (NSC123127), were obtained from the National Cancer Institute (NCI) Developmental Therapeutics Program Chemical Repository. The FDA-approved anticancer drug set is available from the Developmental Therapeutics Program at https://dtp.cancer.gov/organization/dscb/obtaining/available plates.htm. […] The stock solutions were prepared in dimethyl sulfoxide (DMSO, Sigma-Aldrich, St. Louis, MO, cat. D2650), except for the platinum complexes which were prepared in saline (Quality Biological, Gaithersburg, MD, cat. 114-055-101), at 800-fold the tested concentration and stored at -70 degrees C prior to their use. All drugs and investigational agents were tested over a range starting from a high concentration at or near the clinical Cmax and decreasing in half-log increments. If the clinical Cmax for an agent had not been determined, the highest concentration tested was 10 microM.
Cell Culture. All cells were maintained in an incubator at 37 degrees C and 5% CO2 with 95% humidity. The PDC lines were cultured according to standard operating procedures established by the NCI PDMR. Briefly, all PDCs were thawed and cultured in Matrigel-coated flasks prepared with a working solution of 1X Ham's F-12 nutrient mix, without supplementation (Invitrogen, Waltham, MA, cat. 11765054), 100 U/mL penicillin-streptomycin (Invitrogen, cat. 15140122), and 2.5% Matrigel (Corning Inc., Corning, NY, cat. 354248) for the first three passages. The 947758-054-R-J2-PDC line was cultured in 6B/Colon 1A media, which includes advanced DMEM/F-12 (Thermo Fisher Scientific, cat. 12634028), 10 mM HEPES (Thermo Fisher Scientific, cat. 15630080), 1X GlutaMAX supplement (Thermo Fisher Scientific, cat. 35050061), 0.1 mg/mL primocin (InvivoGen, cat. ant-pm-2), 10% defined fetal bovine serum, heat inactivated (HyClone Laboratories Inc., cat. SH30070.03HI), 1.25 mM N-Acetyl-L-cysteine (Sigma-Aldrich, cat. A9165), 10 mM nicotinamide (Sigma-Aldrich, cat. N0636), 1X B-27 supplement (Thermo Fisher Scientific, cat. 17504044), 1X N-2 supplement (Thermo Fisher Scientific, cat. 17502048), and 10 microM Y-27632 dihydrochloride (Tocris Bioscience, cat. 1254). The 876862-298-R-J1-PDC was cultured in 6E media, which includes all 6B/Colon 1A media components plus 50% L-WRN conditioned media (ATCC, cat. CRL-3276), 50 ng/mL recombinant human EGF recombinant protein (hEGF; Thermo Fisher Scientific, cat. PHG0311), 10 ng/mL recombinant human fibroblast growth factor 10 (hGFG-10; PeproTech, cat. 100-26), 1 ng/mL recombinant human fibroblast growth factor 2 (hFGF-2; PeproTech, cat. 100-18B), and 1 µM prostaglandin E2 (PGE2; Tocris, cat. 2296). The 227483-062-R1-J1-PDC line was cultured in Panc media, containing all 6E components except hFGF-2, with the addition of 500 nM SB-431542 (Selleckchem, cat. S1067) and 10 nM gastrin (Tocris, cat. 3006). […]

[1] = curve of first compound, second compound 0.0316 µM
[2] = curve of first compound, second compound 0.1 µM
[3] = curve of first compound, second compound 0.316 µM
[4] = curve of first compound, second compound 1 µM
[5] = curve of first compound, second compound 3.16 µM
[6] = curve of first compound, second compound 10 µM
[7] = second compound 0.0316 µM, first compound 0.0316 µM
[8] = second compound 0.0316 µM, first compound 0.1 µM
[9] = second compound 0.0316 µM, first compound 0.316 µM
[10] = second compound 0.0316 µM, first compound 1 µM
[11] = second compound 0.0316 µM, first compound 3.16 µM
[12] = second compound 0.0316 µM, first compound 10 µM
[13] = second compound 0.1 µM, first compound 0.0316 µM
[14] = second compound 0.1 µM, first compound 0.1 µM
[15] = second compound 0.1 µM, first compound 0.316 µM
[16] = second compound 0.1 µM, first compound 1 µM
[17] = second compound 0.1 µM, first compound 3.16 µM
[18] = second compound 0.1 µM, first compound 10 µM
[19] = second compound 0.316 µM, first compound 0.0316 µM
[20] = second compound 0.316 µM, first compound 0.1 µM
[21] = second compound 0.316 µM, first compound 0.316 µM
[22] = second compound 0.316 µM, first compound 1 µM
[23] = second compound 0.316 µM, first compound 3.16 µM
[24] = second compound 0.316 µM, first compound 10 µM
[25] = second compound 1 µM, first compound 0.0316 µM
[26] = second compound 1 µM, first compound 0.1 µM
[27] = second compound 1 µM, first compound 0.316 µM
[28] = second compound 1 µM, first compound 1 µM
[29] = second compound 1 µM, first compound 3.16 µM
[30] = second compound 1 µM, first compound 10 µM
[31] = second compound 3.16 µM, first compound 0.0316 µM
[32] = second compound 3.16 µM, first compound 0.1 µM
[33] = second compound 3.16 µM, first compound 0.316 µM
[34] = second compound 3.16 µM, first compound 1 µM
[35] = second compound 3.16 µM, first compound 3.16 µM
[36] = second compound 3.16 µM, first compound 10 µM
[37] = second compound 10 µM, first compound 0.0316 µM
[38] = second compound 10 µM, first compound 0.1 µM
[39] = second compound 10 µM, first compound 0.316 µM
[40] = second compound 10 µM, first compound 1 µM
[41] = second compound 10 µM, first compound 3.16 µM
[42] = second compound 10 µM, first compound 10 µM
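Further: spheroids exposed to drugs for seven days before readout.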
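Wherever viability, T/C is given: 100% = DMSO vehicle control wells.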

`CC1(C)CCC(CN2CCN(c3ccc(C(=O)NS(=O)(=O)c4ccc(NCC5CCOCC5)c([N+](=O)[O-])c4)c(Oc4cnc5[nH]ccc5c4)c3)CC2)=C(c2ccc(Cl)cc2)C1` + CNC(=O)c1ccc(Nc2nc(OC3CCCC3)c3c(-c4ccc5nc(C)oc5c4)c[nH]c3n2)c(OC)c1 showed a pIC50 [1] of 5.18, a pIC50 [2] of 5.37 and a pIC50 [3] of over 7.50. The pIC50 [4] was over 7.50, the pIC50 [5] was over 7.50 and the pIC50 [6] was over 7.50. For the same molecule, the viability, T/C [7] was 128%, the viability, T/C [8] was 118% and the viability, T/C [9] was 116%. It also gave a viability, T/C [10] of 125%, a viability, T/C [11] of 173% and a viability, T/C [12] of 3.47%. It also gave a viability, T/C [13] of 54.1%, a viability, T/C [14] of 68.9% and a viability, T/C [15] of 62.4%. For the same molecule, the viability, T/C [16] was 75.5%, the viability, T/C [17] was 69.2% and the viability, T/C [18] was 2.06%. The viability, T/C [19] was 20.6%, the viability, T/C [20] was 23.1% and the viability, T/C [21] was 28.9%. It also gave a viability, T/C [22] of 20.9%, a viability, T/C [23] of 20.5% and a viability, T/C [24] of 3.1%. It also gave a viability, T/C [25] of 21.3%, a viability, T/C [26] of 18.3% and a viability, T/C [27] of 19.3%. For the same molecule, the viability, T/C [28] was 27.2%, the viability, T/C [29] was 23.3% and the viability, T/C [30] was 3.87%. It also gave a viability, T/C [31] of 22.6%, a viability, T/C [32] of 24.9% and a viability, T/C [33] of 19.5%. For the same molecule, the viability, T/C [34] was 22.9%, the viability, T/C [35] was 19.1% and the viability, T/C [36] was 6.53%. For the same molecule, the viability, T/C [37] was 17.3%, the viability, T/C [38] was 19.6% and the viability, T/C [39] was 19.3%. For the same molecule, the viability, T/C [40] was 19.4%, the viability, T/C [41] was 19.3% and the viability, T/C [42] was 4.56%.

`CC1COCCN1c1cc(C2(S(C)(=N)=O)CC2)nc(-c2ccnc3[nH]ccc23)n1` (stereo not drawn) + CNC(=O)c1ccc(Nc2nc(OC3CCCC3)c3c(-c4ccc5nc(C)oc5c4)c[nH]c3n2)c(OC)c1 gave a pIC50 [1] of 5.63, a pIC50 [2] of 5.97 and a pIC50 [3] of over 7.50. For the same molecule, the pIC50 [4] was over 7.50, the pIC50 [5] was over 7.50 and the pIC50 [6] was over 7.50. The viability, T/C [7] was 101%, the viability, T/C [8] was 95.5% and the viability, T/C [9] was 103%. It also gave a viability, T/C [10] of 111%, a viability, T/C [11] of 31.3% and a viability, T/C [12] of 11.1%. For the same molecule, the viability, T/C [13] was 61.3%, the viability, T/C [14] was 65% and the viability, T/C [15] was 57.3%. It also gave a viability, T/C [16] of 52.4%, a viability, T/C [17] of 18.6% and a viability, T/C [18] of 11.6%. For the same molecule, the viability, T/C [19] was 23.3%, the viability, T/C [20] was 22% and the viability, T/C [21] was 23.2%. For the same molecule, the viability, T/C [22] was 15.2%, the viability, T/C [23] was 11.8% and the viability, T/C [24] was 9.36%. For the same molecule, the viability, T/C [25] was 22.3%, the viability, T/C [26] was 20.9% and the viability, T/C [27] was 24.7%. For the same molecule, the viability, T/C [28] was 17.8%, the viability, T/C [29] was 12.2% and the viability, T/C [30] was 6.79%. For the same molecule, the viability, T/C [31] was 22.9%, the viability, T/C [32] was 20.1% and the viability, T/C [33] was 18.5%. The viability, T/C [34] was 20%, the viability, T/C [35] was 10.8% and the viability, T/C [36] was 6.49%. The viability, T/C [37] was 18.1%, the viability, T/C [38] was 18.4% and the viability, T/C [39] was 21%. For the same molecule, the viability, T/C [40] was 20.2%, the viability, T/C [41] was 13.6% and the viability, T/C [42] was 7.4%.

For `O=C(c1cc(Cc2n[nH]c(=O)c3ccccc23)ccc1F)N1CCN(C(=O)C2CC2)CC1` + CNC(=O)c1ccc(Nc2nc(OC3CCCC3)c3c(-c4ccc5nc(C)oc5c4)c[nH]c3n2)c(OC)c1, the pIC50 [1] was under 5.00, the pIC50 [2] was 5.32 and the pIC50 [3] was over 7.50. The pIC50 [4] was over 7.50, the pIC50 [5] was over 7.50 and the pIC50 [6] was over 7.50. The viability, T/C [7] was 117%, the viability, T/C [8] was 100% and the viability, T/C [9] was 111%. It also gave a viability, T/C [10] of 98.1%, a viability, T/C [11] of 112% and a viability, T/C [12] of 82.5%. It also gave a viability, T/C [13] of 58.6%, a viability, T/C [14] of 69.4% and a viability, T/C [15] of 63.6%. For the same molecule, the viability, T/C [16] was 47.4%, the viability, T/C [17] was 57.2% and the viability, T/C [18] was 45.1%. For the same molecule, the viability, T/C [19] was 20.3%, the viability, T/C [20] was 21.5% and the viability, T/C [21] was 21.1%. The viability, T/C [22] was 23.7%, the viability, T/C [23] was 21.9% and the viability, T/C [24] was 23.8%. For the same molecule, the viability, T/C [25] was 24.4%, the viability, T/C [26] was 21.6% and the viability, T/C [27] was 21.1%. The viability, T/C [28] was 28.1%, the viability, T/C [29] was 22.1% and the viability, T/C [30] was 18.5%. It also gave a viability, T/C [31] of 23.3%, a viability, T/C [32] of 22.3% and a viability, T/C [33] of 21.6%. For the same molecule, the viability, T/C [34] was 19.9%, the viability, T/C [35] was 21.3% and the viability, T/C [36] was 23.4%. For the same molecule, the viability, T/C [37] was 18.5%, the viability, T/C [38] was 18% and the viability, T/C [39] was 17.9%. The viability, T/C [40] was 20%, the viability, T/C [41] was 19.9% and the viability, T/C [42] was 19.5%.

In the case of `O=c1[nH]cc(F)c(=O)[nH]1`, the viability, T/C (compound 0.0316 µM) was 109% and 162%, the viability, T/C (compound 0.1 µM) was 103% and 123% and the viability, T/C (compound 0.316 µM) was 86.9% and 104%. The viability, T/C (compound 1 µM) was 60.5% and 74.4%, the viability, T/C (compound 3.16 µM) was 51.7% and 56% and the viability, T/C (compound 10 µM) was 40% and 45.8%. For the same molecule, the pIC50 (curve of compound) was 5.57 and 5.20.

Reference: PubChem BioAssay AID2060609 (Molecular Pharmacology Branch, DTP, NCI, 2025)
